Measurements as given in ChEMBL document CHEMBL1155563, “Structure-activity relationship of polyisoprenyl benzophenones from Garcinia pyrifera on the tubulin/microtubule system” (J Nat Prod, 2000).
Active and inactive are the calls of the source. The calls are words filed in the database; no cut-off is given here.

Legend:
[1] = Inhibition of tubulin microtubule disassembly
KB = experiment: Cytotoxicity against human KB cells; type: functional, cell-based

| Compound | Activity [1] | IC50 (KB) | IC50 [1] |
| --- | --- | --- | --- |
| CC(C)CC[C@H](C[C@]12C[C@H](CCC(C)C)C(C)(C)[C@](CCC(C)C)(C(=O)C(C(=O)c3ccc(O)c(O)c3)=C1O)C2=O)C(C)C [OCTAHYDROXANTHOCHYMOL] | inactive | 20 µM |  |
| CC(=O)O[C@H]1C(=O)[C@@]2(C)[C@H]([C@H](OC(=O)c3ccccc3)[C@]3(O)C[C@H](OC(=O)[C@H](O)[C@@H](NC(=O)c4ccccc4)c4ccccc4)C(C)=C1C3(C)C)[C@]1(OC(C)=O)CO[C@@H]1C[C@@H]2O [PACLITAXEL] |  |  | 500 nM |
